The term EC50 denotes the concentration that produces a half-maximal response. The ΔTm is the shift of the melting midpoint relative to a reference.

Like-named read-outs stand apart in the source and are kept apart here.

For one assay, the target named is T1, AQ STING (G230A-R293Q) (Homo sapiens, UniProt Q86WV6, G230A/H232R/R293Q).
T1 construct: 8xHis (N, cleaved yes); SUMO (N, cleaved yes); made in house; host or cells: E. coli Rosetta-gami B (DE3)
Kind of assay: Differential scanning fluorimetry (DSF) with AQ STING. The settings on record: thermal shift vs apoprotein; 150 μM CDN; truncated human AQ STING 0.1 mg/ml. In kind it is binding. Put shortly: (§1)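 […] STING proteins, alone or with CDNs, in triplicate, thermally denatured on a real-time PCR cycler. Denaturing temperatures taken from first-derivative curves; shift = mean Tm of STING–CDN complex minus mean Tm of apoprotein.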
(In DSF a fluorescence change marks the thermal transition of the protein.)

For assay [1], the target named is T2, WT STING (Homo sapiens, UniProt Q86WV6, H232R). Nature of the assay: 293T WT STING standard reporter assay. The format is cell-based. Also on record: host or cells: 293T (ATCC CRL-3216), stably transfected, with 4xISRE firefly luciferase reporter. The settings on record: 293T wtSTING-FL cells, ISRE firefly luciferase; no digitonin; 7 hours with compounds; 8-point curve. An excerpt: Two complementary oligonucleotides of the sequence […] […] […] […] […] The oligonucleotides were mixed in equal molar amounts, hybridized, and cleaved by restriction endonucleases HindIII (cat. #. R0104S, NEB, Ipswich, USA) and BglII (cat. #R0144S, NEB, Ipswich, USA). Ultimately, they were ligated into plasmid pGL4.27 (cat. #E6651, Promega, Madison, USA) linearized with the same enzymes. As result the sequence with four ISRE sites was placed upstream of the minimum promoter of firefly luciferase reporter gene.
After 5 minutes incubation at room temperature (RT), 250 μL of the mixture was added dropwise to the cells in one well. Cells were incubated 36 hours at 37° C. with 5% CO2, and then detached with 0.05% Trypsin and 0.22 g/L EDTA (both cat. #L0941, Biowest, Riverside, USA).
Transfected cells were seeded onto poly-D-lysine coated six well plates at density 50,000 cells per 1 cm^2 in DMEM medium with high glucose containing 10% heat inactivated FBS, 30 μg/mL blasticidin (cat. #ant-b1-05, InvivoGen, San Diego, USA), 0.06 mg/ml Penicillin G and 0.1 mg/ml Streptomycin Sulfate (both cat. #. L0018, Biowest, Riverside, USA). The medium was replenished every 3-4 days until visible colonies of cells resistant to blasticidin were formed.
Blasticidin resistant cells stably expressing WT STING were further transfected with […] plasmid following the same procedure as described above. […] Homogeneous culture of stably double transfected cells was prepared by limiting dilution of cells in 96 well plates and wells with cells were selected that originated from a single cell.
The medium was removed next day and three-fold serial dilutions of compounds in 100 μl medium were added to the cells. The plates with cells were incubated for 7 hours at 37° C. with 5% CO2. After 50 μl of the medium was removed, 30 μl of ONE-Glo™ Luciferase Assay System reagent (cat. #E6120, Promega, Madison, USA) was added to each well and luminescence was read on Synergy H1 (Biotek, Winooski, USA).
Target sequence in this assay (Q86WV6 whole entry H232R): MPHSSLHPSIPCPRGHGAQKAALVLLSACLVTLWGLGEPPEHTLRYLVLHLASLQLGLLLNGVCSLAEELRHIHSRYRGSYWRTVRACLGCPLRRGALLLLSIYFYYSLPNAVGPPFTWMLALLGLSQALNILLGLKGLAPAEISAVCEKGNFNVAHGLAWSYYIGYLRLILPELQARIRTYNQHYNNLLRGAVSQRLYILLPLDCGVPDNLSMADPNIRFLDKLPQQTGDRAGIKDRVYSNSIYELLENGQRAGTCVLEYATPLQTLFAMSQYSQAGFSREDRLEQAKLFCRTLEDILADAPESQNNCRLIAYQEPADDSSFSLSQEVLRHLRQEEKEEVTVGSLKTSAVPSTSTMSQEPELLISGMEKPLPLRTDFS
(In general: In a reporter assay the amount or activity of a reporter protein is the signal.)

For assay [2], the target named is T2, WT STING. Kind of assay: Digitonin assay using 293T wtSTING-FL reporter cells. The settings on record: 293T wtSTING-FL cells, ISRE firefly luciferase; compounds in Digitonin buffer 30 minutes, then 5 hours; 8-point curve. In kind it is cell-based. Also on record: host or cells: 293T (ATCC CRL-3216), stably transfected, with 4xISRE firefly luciferase reporter.
Target sequence in this assay (Q86WV6 whole entry H232R): as above
Assay [3] deals with peripheral blood mononuclear cells (PBMC). Nature of the assay: Peripheral blood mononuclear cell (PBMC) assay. In kind it is cell-based. The note with it: PBMC, 1 h with compounds, washed, 15 hour incubation, average of one to four donors. The procedure, abridged:
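PBMCs exposed to serially diluted compound for 1 h at 37° C, 5% CO2, then washed twice and cultured 15 h in compound-free medium. IFN-α, IFN-γ and TNF-α measured in collected medium by multiplex bead immunoassay. Values averaged over runs from one to four donors.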

Assay [4] has as its target T2, WT STING. Nature of the assay: Differential scanning fluorimetry (DSF) with WT STING. The format is binding. Set-up: 8xHis (N, cleaved yes); SUMO (N, cleaved yes); made in house; host or cells: E. coli Rosetta-gami B (DE3). The settings on record: thermal shift vs apoprotein; 150 μM CDN; truncated human WT STING 0.1 mg/ml. The procedure, abridged: as §1
Target sequence in this assay (Q86WV6 140-343 H232R): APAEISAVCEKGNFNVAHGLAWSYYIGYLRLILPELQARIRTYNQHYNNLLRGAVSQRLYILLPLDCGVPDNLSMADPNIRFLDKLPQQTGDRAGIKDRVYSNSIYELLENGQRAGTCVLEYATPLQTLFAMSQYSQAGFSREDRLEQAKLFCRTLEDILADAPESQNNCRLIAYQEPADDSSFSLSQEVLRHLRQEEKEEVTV
The mark [5] stands for this setting: interferon-alpha level, read-out: PBMC EC50 (μM) IFN-α.
[6] abbreviates: interferon-gamma level, read-out: PBMC EC50 (μM) IFN-γ.
The mark [7] stands for this setting: tumor necrosis factor-alpha level, read-out: PBMC EC50 (μM) TNF-α.

T1 sequence (Q86WV6 140-343 G230A/H232R/R293Q): as the sequence (Q86WV6 140-343 H232R) above, with G91A, R154Q counted along it

Consider `Nc1ncnc2c1ncn2[C@@H]1C[C@@H]2COP(=O)(S)O[C@@H]3[C@@H](COP(=O)(S)O[C@H]2[C@H]1F)C[C@@H](n1cnc2c(N)ncnc21)[C@@H]3F` (single isomer, unassigned) [Compound 128b], for which, at AQ STING (G230A-R293Q), the “DSF ΔTm (° C.) AQ STING” value came out at 17.5 °C. Also, the EC50 at WT STING [1] is 0.4 µM; at WT STING [2] it was 0.01 µM; in assay [3] (setting [5]) it was 27 µM; in assay [3] (setting [6]), 6.5 µM; in assay [3] (setting [7]) it was 19 µM. Besides, the “DSF ΔTm (° C.) WT STING” value on WT STING [4] is 12.2 °C.

In the case of `Nc1nc2c(ncn2[C@@H]2C[C@@H]3COP(=O)(S)O[C@H]4[C@@H](F)[C@H](n5cnc6c(N)ncnc65)O[C@@H]4COP(=O)(S)O[C@H]3C2)c(=O)[nH]1` (single isomer, unassigned) [Compound 129d], the “DSF ΔTm (° C.) AQ STING” value at AQ STING (G230A-R293Q) amounted to 20.8 °C. In addition, the concentration for a half-maximal effect (EC50) on WT STING [1] worked out at 0.3 µM; at WT STING [2] it was 0.007 µM; in assay [3] (setting [5]), 27 µM; in assay [3] (setting [6]), 23 µM; in assay [3] (setting [7]), 25 µM. Further, the “DSF ΔTm (° C.) WT STING” value at WT STING [4] was determined as 13.7 °C.

Take `Nc1nc2c(ncn2[C@@H]2O[C@@H]3COP(=O)(O)O[C@@H]4[C@H](O)[C@@H](COP(=O)(O)O[C@@H]2[C@@H]3O)O[C@H]4n2cnc3c(N)ncnc32)c(=O)[nH]1` [2′2′-cGAMP, reference compound]: the “DSF ΔTm (° C.) AQ STING” value at AQ STING (G230A-R293Q) amounted to 19.4 °C. In addition, the half-maximal effective concentration (EC50) at WT STING [1] came out at 10.2 µM; at WT STING [2], 0.03 µM. The “DSF ΔTm (° C.) WT STING” value at WT STING [4] worked out at 11.5 °C.

For `Nc1ncnc2c1ncn2[C@H]1CC2OP(=O)(O)OC[C@H]3O[C@@H](n4cnc5c(N)ncnc54)C(F)C3OP(=O)(O)OC[C@H]2C1` (stereo partly drawn) [Compound 119, (2R, 3R, 3aR, 7aR, 9R, 10aS, 14aR)-2,9-bis(6-amino-9H-purin-9-yl)-3-fluoro-5,12-dihydroxydecahydro-2H-cyclopeanta[d]furo[3,2-j][1,3,7,9]tetraoxa[2,8]diphosphacyclododecine 5,12-dioxide], the ΔTm at 150 µM worked out at 16.6 °C on AQ STING (G230A-R293Q) and 5.7 °C at WT STING [4]. Moreover, the EC50 on WT STING [1] came out at 11.7 µM; at WT STING [2], 0.05 µM; in assay [3] (setting [5]), 265 µM; in assay [3] (setting [6]), 169 µM; in assay [3] (setting [7]), 146 µM.

Regarding `Nc1ncnc2c1ncn2[C@@H]1C[C@@H]2COP(=O)(O)OC3C(F)[C@H](n4cnc5c(N)ncnc54)O[C@@H]3COP(=O)(O)OC2C1F` (stereo partly drawn) [Compound 120, (2R,3R,3aR,7aR,9R,10S,10aR,14aR)-2,9-bis(6-amino-9H-purin-9-yl)-3,10-difluoro-5,12-dihydroxydecahydro-2H-cyclopenta[d]furo[3,2-j][1,3,7,9]tetraoxa[2,8]diphosphacyclododecine 5,12-dioxide], the ΔTm at 150 µM is 17 °C on AQ STING (G230A-R293Q) and 10.3 °C on WT STING [4]. Further, the EC50 on WT STING [1] stood at 1.9 µM; at WT STING [2], 0.01 µM; in assay [3] (setting [5]) it was 64 µM; in assay [3] (setting [6]) it was 36.6 µM; in assay [3] (setting [7]), 72.6 µM.

As for `Nc1ncnc2c1ncn2[C@@H]1C[C@@H]2COP(=O)(O)OC3C(F)[C@H](n4cnc5c(N)ncnc54)C[C@@H]3COP(=O)(O)OC2C1F` (stereo partly drawn) [Compound 121, (2R,3S,3aR,7aR,9R,10S,10aR,14aR)-2,9-bis(6-amino-9H-purin-9-yl)-3,10-difluoro-5,12-dihydroxydodecahydrodicyclopenta[d,j][1,3,7,9]tetraoxa[2,8]-diphosphacyclododecine 5,12-dioxide], the thermal shift (ΔTm) at 150 µM at AQ STING (G230A-R293Q) came out at 13.9 °C; on WT STING [4], 7.6 °C. Also, the EC50 on WT STING [1] came out at 2.6 µM; at WT STING [2], 0.05 µM; in assay [3] (setting [5]), 254 µM; in assay [3] (setting [6]) it was 200 µM; in assay [3] (setting [7]) it was 254 µM.

Turning to `Nc1ncnc2c1ncn2[C@@H]1C[C@@H]2COP(=O)(O)OC3C[C@H](n4cnc5c(N)ncnc54)O[C@@H]3COP(=O)(O)OC2C1F` (stereo partly drawn) [Compound 124, (2R,3aS,7aR,9R,10S,10aR,14aR)-2,9-bis(6-amino-9H-purin-9-yl)-10-fluoro-5,12-dihydroxydecahydro-2H-cyclopenta[d]furo[3,2-j][1,3,7,9]tetraoxa[2,8]diphosphacyclododecine 5,12-dioxide], the shift in melting temperature (ΔTm) at 150 µM stood at 12.8 °C at AQ STING (G230A-R293Q) and 6.2 °C on WT STING [4]. In addition, the EC50 on WT STING [1] worked out at 4.9 µM; on WT STING [2] it was 0.05 µM; in assay [3] (setting [5]), 290 µM; in assay [3] (setting [6]) it was 43 µM; in assay [3] (setting [7]) it was 223 µM.

As for `Nc1nc2c(ncn2[C@@H]2O[C@@H]3COP(=O)(S)OC4C(F)[C@H](n5cnc6c(N)ncnc65)C[C@@H]4COP(=O)(S)OC3C2F)c(=O)[nH]1` (stereo partly drawn) [Compound 132b, (1R,6R,8R,9R,10R,15R,17R,18S)-8-(2-amino-6-oxo-6,9-dihydro-1H-purin-9-yl)-17-(6-amino-9H-purin-9-yl)-9,18-difluoro-3,12-disulfanyl-2,4,7,11,13-pentaoxa-3λ^5,12λ^5-diphosphatricyclo[13.3.0.0^6,10]octadecane-3,12-dione], the ΔTm at 150 µM amounted to 26.1 °C on AQ STING (G230A-R293Q) and 18.6 °C at WT STING [4]. Besides, the EC50 at WT STING [1] is 0.2 µM; at WT STING [2], 0.01 µM.

(Values after US11766447B2, “3′3′-cyclic dinucleotide analogue comprising a cyclopentanyl modified nucleotide as sting modulator” (INSTITUTE OF ORGANIC CHEMISTRY AND BIOCHEMISTRY ASCR, V.V.I., priority 2019, dated 2023).)
